{
  "source": "patent US20260224588A1",
  "about": "“BENZODIAZEPINONE-DERIVED INHIBITORS OF EGFR AND HER2” (The Research Foundation for the State University of New York, priority 2023, published 2026)",
  "assay_in_all_cases": "KINOMEscan",
  "assay_type_in_all_cases": "binding",
  "settings_in_all_cases": "1 μM of compound 4; read-out: POC",
  "key": {"IKK-epsilon": {"molecular_target": "IKK-epsilon (Homo sapiens, UniProt Q14164)", "sequence (Q14164 whole entry)": "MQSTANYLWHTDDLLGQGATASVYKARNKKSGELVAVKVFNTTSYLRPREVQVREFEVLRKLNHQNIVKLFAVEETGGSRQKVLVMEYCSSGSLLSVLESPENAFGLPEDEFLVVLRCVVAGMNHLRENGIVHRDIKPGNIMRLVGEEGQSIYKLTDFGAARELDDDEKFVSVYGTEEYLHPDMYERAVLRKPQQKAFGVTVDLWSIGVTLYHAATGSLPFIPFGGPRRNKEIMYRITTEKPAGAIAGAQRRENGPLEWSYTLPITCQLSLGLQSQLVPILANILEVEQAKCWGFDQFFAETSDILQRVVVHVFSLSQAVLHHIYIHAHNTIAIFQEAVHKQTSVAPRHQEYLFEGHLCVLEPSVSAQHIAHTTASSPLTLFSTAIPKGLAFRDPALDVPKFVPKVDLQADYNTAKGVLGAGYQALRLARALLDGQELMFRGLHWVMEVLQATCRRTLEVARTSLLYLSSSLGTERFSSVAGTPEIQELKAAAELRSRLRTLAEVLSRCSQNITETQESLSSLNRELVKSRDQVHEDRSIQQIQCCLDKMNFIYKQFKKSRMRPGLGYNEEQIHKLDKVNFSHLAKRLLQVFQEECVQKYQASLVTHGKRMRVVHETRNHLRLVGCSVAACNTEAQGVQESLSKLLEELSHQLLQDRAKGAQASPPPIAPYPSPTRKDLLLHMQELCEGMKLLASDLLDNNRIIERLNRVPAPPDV"}, "OSR1": {"molecular_target": "T1, OSR1 (Homo sapiens, UniProt O95747)", "T1 construct": "purchased Eurofins DiscoverX Corporation (KINOMEscan)"}, "PIK3CA(Q546K)": {"molecular_target": "PIK3CA(Q546K) (Homo sapiens, UniProt P42336, Q546K)"}, "PYK2": {"molecular_target": "T2, PYK2 (Homo sapiens, UniProt Q14289)", "T2 construct": "purchased Eurofins DiscoverX Corporation (KINOMEscan screening service)"}, "ACVRL1": {"molecular_target": "ACVRL1 (Homo sapiens, UniProt P37023)", "sequence (P37023 22-503)": "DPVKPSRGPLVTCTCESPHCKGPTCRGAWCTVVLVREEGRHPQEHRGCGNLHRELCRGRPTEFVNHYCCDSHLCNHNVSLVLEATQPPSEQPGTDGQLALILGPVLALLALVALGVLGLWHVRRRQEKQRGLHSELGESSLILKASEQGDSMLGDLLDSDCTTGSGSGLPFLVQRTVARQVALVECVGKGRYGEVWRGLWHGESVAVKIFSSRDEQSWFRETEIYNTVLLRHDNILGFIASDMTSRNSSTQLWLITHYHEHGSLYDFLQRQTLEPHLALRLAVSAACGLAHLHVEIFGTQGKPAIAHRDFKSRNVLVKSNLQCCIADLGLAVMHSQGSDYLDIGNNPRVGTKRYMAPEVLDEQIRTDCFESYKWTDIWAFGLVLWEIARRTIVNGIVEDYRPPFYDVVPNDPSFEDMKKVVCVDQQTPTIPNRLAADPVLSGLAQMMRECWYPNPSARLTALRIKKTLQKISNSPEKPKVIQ"}, "DCAMKL3": {"molecular_target": "DCAMKL3 (Homo sapiens, UniProt Q9C098)"}, "[1]": {"molecular_target": "T3, ABL1(F317I)-nonphosphorylated (Homo sapiens, UniProt P00519, F317I)", "T3 construct": "purchased Eurofins DiscoverX Corporation"}, "SRC": {"molecular_target": "T4, SRC (Homo sapiens, UniProt P12931)", "T4 construct": "purchased Eurofins DiscoverX (KINOMEscan service)"}, "CLK4": {"molecular_target": "CLK4 (Homo sapiens, UniProt Q9HAZ1)", "sequence (Q9HAZ1 whole entry)": "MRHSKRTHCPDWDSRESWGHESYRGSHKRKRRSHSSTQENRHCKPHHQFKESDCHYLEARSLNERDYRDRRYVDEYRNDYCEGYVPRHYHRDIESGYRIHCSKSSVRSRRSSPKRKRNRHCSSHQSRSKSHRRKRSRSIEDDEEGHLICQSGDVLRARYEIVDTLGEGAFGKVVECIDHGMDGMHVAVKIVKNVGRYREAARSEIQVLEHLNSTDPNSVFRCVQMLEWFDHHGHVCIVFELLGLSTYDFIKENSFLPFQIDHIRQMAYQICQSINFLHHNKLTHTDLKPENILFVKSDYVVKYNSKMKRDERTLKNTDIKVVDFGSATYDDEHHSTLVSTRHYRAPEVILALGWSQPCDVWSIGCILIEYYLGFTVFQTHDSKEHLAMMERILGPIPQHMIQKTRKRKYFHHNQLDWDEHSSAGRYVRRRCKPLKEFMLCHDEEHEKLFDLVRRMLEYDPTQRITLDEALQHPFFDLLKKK"}, "TNNI3K": {"molecular_target": "T5, TNNI3K (Homo sapiens, UniProt Q59H18)", "T5 construct": "purchased Eurofins DiscoverX Corporation"}, "CHEK2": {"molecular_target": "CHEK2 (Homo sapiens, UniProt O96017)", "sequence (O96017 whole entry)": "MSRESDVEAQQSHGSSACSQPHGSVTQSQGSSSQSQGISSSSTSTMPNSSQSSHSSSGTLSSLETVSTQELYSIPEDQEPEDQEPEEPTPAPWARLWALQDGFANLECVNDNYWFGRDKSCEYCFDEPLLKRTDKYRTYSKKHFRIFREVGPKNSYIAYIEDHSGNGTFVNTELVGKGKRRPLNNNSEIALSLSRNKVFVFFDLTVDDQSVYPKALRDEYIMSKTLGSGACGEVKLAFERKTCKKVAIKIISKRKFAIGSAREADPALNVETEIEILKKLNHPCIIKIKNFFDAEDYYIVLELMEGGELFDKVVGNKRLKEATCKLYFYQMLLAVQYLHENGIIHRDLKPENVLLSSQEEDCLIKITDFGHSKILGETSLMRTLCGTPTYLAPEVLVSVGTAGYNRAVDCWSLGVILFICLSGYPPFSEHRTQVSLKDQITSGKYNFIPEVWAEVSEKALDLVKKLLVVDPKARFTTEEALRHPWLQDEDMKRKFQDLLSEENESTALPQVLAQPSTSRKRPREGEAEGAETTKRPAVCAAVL"}, "ERBB2": {"molecular_target": "T6, ERBB2 (Homo sapiens, UniProt P04626)", "T6 construct": "purchased Eurofins DiscoverX Corporation"}, "FES": {"molecular_target": "T7, FES (Homo sapiens, UniProt P07332)", "T7 construct": "purchased Eurofins DiscoverX Corporation"}, "PIK3CA(E545A)": {"molecular_target": "PIK3CA(E545A) (Homo sapiens, UniProt P42336, E545A)", "sequence (P42336 whole entry E545A)": "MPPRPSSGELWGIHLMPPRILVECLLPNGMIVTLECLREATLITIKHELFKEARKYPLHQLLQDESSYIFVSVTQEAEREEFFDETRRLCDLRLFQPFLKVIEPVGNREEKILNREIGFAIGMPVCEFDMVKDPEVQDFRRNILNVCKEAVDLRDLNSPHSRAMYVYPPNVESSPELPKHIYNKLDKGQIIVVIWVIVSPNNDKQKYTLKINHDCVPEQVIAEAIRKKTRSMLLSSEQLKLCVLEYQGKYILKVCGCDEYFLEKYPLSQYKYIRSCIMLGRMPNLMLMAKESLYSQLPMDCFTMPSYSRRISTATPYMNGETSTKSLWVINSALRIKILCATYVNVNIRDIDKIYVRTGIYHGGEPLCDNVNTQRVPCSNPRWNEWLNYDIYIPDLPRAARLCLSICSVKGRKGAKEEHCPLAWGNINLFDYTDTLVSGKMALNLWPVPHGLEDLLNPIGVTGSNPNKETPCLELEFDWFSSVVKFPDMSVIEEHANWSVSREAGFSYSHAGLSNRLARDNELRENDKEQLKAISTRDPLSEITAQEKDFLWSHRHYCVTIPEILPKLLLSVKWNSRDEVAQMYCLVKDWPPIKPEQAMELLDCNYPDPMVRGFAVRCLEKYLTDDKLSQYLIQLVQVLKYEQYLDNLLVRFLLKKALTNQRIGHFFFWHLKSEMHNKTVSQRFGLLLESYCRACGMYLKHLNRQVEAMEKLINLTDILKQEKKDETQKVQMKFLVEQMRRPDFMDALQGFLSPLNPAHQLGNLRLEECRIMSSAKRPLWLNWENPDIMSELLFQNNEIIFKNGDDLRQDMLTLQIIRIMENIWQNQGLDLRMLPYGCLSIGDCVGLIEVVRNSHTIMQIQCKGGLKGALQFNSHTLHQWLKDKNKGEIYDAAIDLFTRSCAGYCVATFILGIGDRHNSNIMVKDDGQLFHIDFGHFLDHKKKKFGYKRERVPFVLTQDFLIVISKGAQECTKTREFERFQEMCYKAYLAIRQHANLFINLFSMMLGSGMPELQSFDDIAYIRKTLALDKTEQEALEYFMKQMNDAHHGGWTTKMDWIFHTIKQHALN"}, "PIM2": {"molecular_target": "PIM2 (Homo sapiens, UniProt Q9P1W9)"}, "EGFR(L861Q)": {"molecular_target": "T8, EGFR(L861Q) (Homo sapiens, UniProt P00533, L861Q)", "T8 construct": "purchased Eurofins DiscoverX (KINOMEscan service)"}, "PRKCD": {"molecular_target": "PRKCD (Homo sapiens, UniProt Q05655)"}, "CDKL5": {"molecular_target": "CDKL5 (Homo sapiens, UniProt O76039)"}, "ARK5": {"molecular_target": "ARK5 (Homo sapiens, UniProt O60285)", "sequence (O60285 whole entry)": "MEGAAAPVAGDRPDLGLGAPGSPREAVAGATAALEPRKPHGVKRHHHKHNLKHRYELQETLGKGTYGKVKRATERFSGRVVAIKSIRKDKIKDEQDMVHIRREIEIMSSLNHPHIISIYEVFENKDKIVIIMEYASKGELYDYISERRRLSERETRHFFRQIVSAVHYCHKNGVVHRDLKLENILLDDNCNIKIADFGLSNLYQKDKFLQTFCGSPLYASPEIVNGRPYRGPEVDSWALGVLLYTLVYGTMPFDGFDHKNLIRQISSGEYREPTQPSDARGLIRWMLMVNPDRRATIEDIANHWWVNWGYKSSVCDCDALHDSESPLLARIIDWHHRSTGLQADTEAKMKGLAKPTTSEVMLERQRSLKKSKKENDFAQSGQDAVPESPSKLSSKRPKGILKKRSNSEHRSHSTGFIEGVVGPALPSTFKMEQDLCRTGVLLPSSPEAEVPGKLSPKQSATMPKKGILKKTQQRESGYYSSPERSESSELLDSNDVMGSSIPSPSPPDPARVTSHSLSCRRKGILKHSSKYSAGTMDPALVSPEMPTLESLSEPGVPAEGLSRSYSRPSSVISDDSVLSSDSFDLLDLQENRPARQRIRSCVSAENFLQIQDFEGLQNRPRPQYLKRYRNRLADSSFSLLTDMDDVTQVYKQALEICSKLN"}, "CDC2L5": {"molecular_target": "CDC2L5 (Homo sapiens, UniProt Q14004)"}, "NDR1": {"molecular_target": "NDR1 (Homo sapiens, UniProt Q15208)"}, "EPHB6": {"molecular_target": "T9, EPHB6 (Homo sapiens, UniProt O15197)", "T9 construct": "purchased Eurofins DiscoverX (KINOMEscan service)"}, "TRKB": {"molecular_target": "T10, TRKB (Homo sapiens, UniProt Q16620)", "T10 construct": "purchased Eurofins DiscoverX Corporation"}, "AKT3": {"molecular_target": "AKT3 (Homo sapiens, UniProt Q9Y243)"}, "MAP3K2": {"molecular_target": "MAP3K2 (Homo sapiens, UniProt Q9Y2U5)"}, "IKK-alpha": {"molecular_target": "IKK-alpha (Homo sapiens, UniProt O15111)"}, "[2]": {"molecular_target": "JAK1(JH2domain-pseudokinase) (Homo sapiens, UniProt P23458)", "sequence (P23458 583-855 limits assumed)": "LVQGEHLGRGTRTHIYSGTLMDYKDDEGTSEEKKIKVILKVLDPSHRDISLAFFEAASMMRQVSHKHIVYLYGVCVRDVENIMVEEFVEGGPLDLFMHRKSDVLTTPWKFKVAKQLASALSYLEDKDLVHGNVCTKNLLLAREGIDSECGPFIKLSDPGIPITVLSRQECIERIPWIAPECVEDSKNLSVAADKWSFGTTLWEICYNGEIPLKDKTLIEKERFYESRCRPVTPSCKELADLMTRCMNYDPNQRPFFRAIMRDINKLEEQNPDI"}, "MLK3": {"molecular_target": "MLK3 (Homo sapiens, UniProt Q16584)"}, "MYLK": {"molecular_target": "MYLK (Homo sapiens, UniProt Q15746)"}, "IRAK4": {"molecular_target": "IRAK4 (Homo sapiens, UniProt Q9NWZ3)"}, "PKMYT1": {"molecular_target": "PKMYT1 (Homo sapiens, UniProt Q99640)", "sequence (Q99640 whole entry)": "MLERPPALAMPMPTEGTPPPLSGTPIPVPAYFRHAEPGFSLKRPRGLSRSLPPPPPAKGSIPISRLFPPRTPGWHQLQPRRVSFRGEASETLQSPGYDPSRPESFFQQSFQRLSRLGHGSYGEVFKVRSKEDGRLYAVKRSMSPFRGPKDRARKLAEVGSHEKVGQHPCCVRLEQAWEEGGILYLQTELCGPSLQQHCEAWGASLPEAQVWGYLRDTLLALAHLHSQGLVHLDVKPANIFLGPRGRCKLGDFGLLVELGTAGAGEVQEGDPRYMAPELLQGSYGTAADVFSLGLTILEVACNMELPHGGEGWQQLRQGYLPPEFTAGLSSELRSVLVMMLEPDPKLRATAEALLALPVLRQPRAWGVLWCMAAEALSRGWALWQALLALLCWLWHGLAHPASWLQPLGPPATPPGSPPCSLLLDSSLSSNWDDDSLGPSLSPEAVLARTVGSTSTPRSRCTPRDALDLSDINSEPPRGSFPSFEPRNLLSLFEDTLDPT"}, "JNK1": {"molecular_target": "JNK1 (Homo sapiens, UniProt P45983)"}, "BMPR2": {"molecular_target": "BMPR2 (Homo sapiens, UniProt Q13873)"}, "CDKL1": {"molecular_target": "CDKL1 (Homo sapiens, UniProt Q00532)"}, "CSNK1G2": {"molecular_target": "CSNK1G2 (Homo sapiens, UniProt P78368)"}, "ASK1": {"molecular_target": "ASK1 (Homo sapiens, UniProt Q99683)"}, "MAP3K4": {"molecular_target": "MAP3K4 (Homo sapiens, UniProt Q9Y6R4)"}, "BRAF(V600E)": {"molecular_target": "BRAF(V600E) (Homo sapiens, UniProt P15056, V600E)"}, "[3]": {"molecular_target": "T11, TYK2(JH2domain-pseudokinase) (Homo sapiens, UniProt P29597)", "T11 construct": "TYK2(JH2domain-pseudokinase); purchased Eurofins DiscoverX", "T11 sequence (P29597 589-875 limits assumed)": "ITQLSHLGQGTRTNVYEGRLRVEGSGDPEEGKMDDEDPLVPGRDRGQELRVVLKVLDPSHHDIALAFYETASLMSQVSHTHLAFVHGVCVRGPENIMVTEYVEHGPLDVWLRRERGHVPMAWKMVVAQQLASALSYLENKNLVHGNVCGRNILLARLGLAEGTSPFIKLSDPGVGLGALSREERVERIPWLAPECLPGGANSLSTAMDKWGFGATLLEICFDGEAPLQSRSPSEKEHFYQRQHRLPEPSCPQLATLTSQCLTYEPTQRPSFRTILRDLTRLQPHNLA"}},
  "data": [
    {"smiles": "C=CC(=O)Nc1ccc(OC)c(Nc2cc(-c3[nH]c(CC)nc3-c3cccc(NC(=O)c4cccc5c4NC(=O)c4ccccc4N5)c3)ccn2)c1", "note": "[Compound 4, N-(3-(5-(2-((5-Acrylamido-2-methoxyphenyl)amino)pyridin-4-yl)-2-ethyl-1H-imidazol-4-yl)phenyl)-11-oxo-10,11-dihydro-5H-dibenzo[b,e][1,4]diazepine-9-carboxamide]", "values": [
      {"measurement": "remaining binding at 1 µM", "setting": "IKK-epsilon", "value": 100, "unit": "%"},
      {"measurement": "remaining binding at 1 µM", "setting": "OSR1", "value": 89, "unit": "%"},
      {"measurement": "remaining binding at 1 µM", "setting": "PIK3CA(Q546K)", "value": 100, "unit": "%"},
      {"measurement": "remaining binding at 1 µM", "setting": "PYK2", "value": 100, "unit": "%"},
      {"measurement": "remaining binding at 1 µM", "setting": "ACVRL1", "value": 75, "unit": "%"},
      {"measurement": "remaining binding at 1 µM", "setting": "DCAMKL3", "value": 86, "unit": "%"},
      {"measurement": "remaining binding at 1 µM", "setting": "[1]", "value": 40, "unit": "%"},
      {"measurement": "remaining binding at 1 µM", "setting": "SRC", "value": 73, "unit": "%"},
      {"measurement": "remaining binding at 1 µM", "setting": "CLK4", "value": 100, "unit": "%"},
      {"measurement": "remaining binding at 1 µM", "setting": "TNNI3K", "value": 89, "unit": "%"},
      {"measurement": "remaining binding at 1 µM", "setting": "CHEK2", "value": 87, "unit": "%"},
      {"measurement": "remaining binding at 1 µM", "setting": "ERBB2", "value": 18, "unit": "%"},
      {"measurement": "remaining binding at 1 µM", "setting": "FES", "value": 28, "unit": "%"},
      {"measurement": "remaining binding at 1 µM", "setting": "PIK3CA(E545A)", "value": 100, "unit": "%"},
      {"measurement": "remaining binding at 1 µM", "setting": "PIM2", "value": 88, "unit": "%"},
      {"measurement": "remaining binding at 1 µM", "setting": "EGFR(L861Q)", "value": 2.7, "unit": "%"},
      {"measurement": "remaining binding at 1 µM", "setting": "PRKCD", "value": 55, "unit": "%"},
      {"measurement": "remaining binding at 1 µM", "setting": "CDKL5", "value": 98, "unit": "%"},
      {"measurement": "remaining binding at 1 µM", "setting": "ARK5", "value": 100, "unit": "%"},
      {"measurement": "remaining binding at 1 µM", "setting": "CDC2L5", "value": 74, "unit": "%"},
      {"measurement": "remaining binding at 1 µM", "setting": "NDR1", "value": 73, "unit": "%"},
      {"measurement": "remaining binding at 1 µM", "setting": "EPHB6", "value": 100, "unit": "%"},
      {"measurement": "remaining binding at 1 µM", "setting": "TRKB", "value": 100, "unit": "%"},
      {"measurement": "remaining binding at 1 µM", "setting": "AKT3", "value": 100, "unit": "%"},
      {"measurement": "remaining binding at 1 µM", "setting": "MAP3K2", "value": 100, "unit": "%"},
      {"measurement": "remaining binding at 1 µM", "setting": "IKK-alpha", "value": 100, "unit": "%"},
      {"measurement": "remaining binding at 1 µM", "setting": "[2]", "value": 83, "unit": "%"},
      {"measurement": "remaining binding at 1 µM", "setting": "MLK3", "value": 97, "unit": "%"},
      {"measurement": "remaining binding at 1 µM", "setting": "MYLK", "value": 84, "unit": "%"},
      {"measurement": "remaining binding at 1 µM", "setting": "IRAK4", "value": 43, "unit": "%"},
      {"measurement": "remaining binding at 1 µM", "setting": "PKMYT1", "value": 99, "unit": "%"},
      {"measurement": "remaining binding at 1 µM", "setting": "JNK1", "value": 85, "unit": "%"},
      {"measurement": "remaining binding at 1 µM", "setting": "BMPR2", "value": 88, "unit": "%"},
      {"measurement": "remaining binding at 1 µM", "setting": "CDKL1", "value": 100, "unit": "%"},
      {"measurement": "remaining binding at 1 µM", "setting": "CSNK1G2", "value": 91, "unit": "%"},
      {"measurement": "remaining binding at 1 µM", "setting": "ASK1", "value": 100, "unit": "%"},
      {"measurement": "remaining binding at 1 µM", "setting": "MAP3K4", "value": 100, "unit": "%"},
      {"measurement": "remaining binding at 1 µM", "setting": "BRAF(V600E)", "value": 100, "unit": "%"},
      {"measurement": "remaining binding at 1 µM", "setting": "[3]", "value": 100, "unit": "%"}
    ]}
  ]
}
